Usually IC50 stands for the concentration that gives 50% inhibition. The term Ki denotes a measure of affinity in units of concentration, obtained from inhibition or displacement.

Calls of active or inactive are those of the source. The rule behind the calls is not given here.

Two compounds from ChEMBL document CHEMBL5321219, “Selective degradation of cellular BRD3 and BRD4-L promoted by PROTAC molecules in six cancer cell lines” (Eur J Med Chem, 2023) can be followed below.

Assay [1] has as its system MV4-11. The assay is described as follows: Antiproliferative activity against human MV4-11 cells assessed as cell growth inhibition measured after 3 days by CellTitre-Glo assay. Type of assay: functional, cell-based. As to conditions: MV4-11, 72 h.
Assay [2] addresses T1, Protein cereblon/Bromodomain-containing protein 3 (Homo sapiens) (UniProt Q15059+Q96SW2). Briefly: PROTAC activity at CRBN/BRD3 in human HGC-27 cells assessed as induction of protein degradation at 1 uM measured around 1 to 3 hrs by Western blot analysis. Type of assay: cell-based. As to conditions: time 1-3 hrs. For orientation: A western blot detects proteins with antibodies after separation by electrophoresis.

Assay [3] concerns the target T2, Protein cereblon/Bromodomain-containing protein 4 (Homo sapiens) (UniProt O60885+Q96SW2). Briefly: PROTAC activity at CRBN/BRD4-S in human MV4-11 cells assessed as induction of protein degradation at 0.5 to 10 uM measured after 24 hrs by Western blot analysis. The class given is cell-based. As to conditions: dose 0.5-10 µM.
The target of assay [4] is T3, Bromodomain-containing protein 3 (Homo sapiens, UniProt Q15059). Briefly: Binding affinity to recombinant human BRD3 BD1 (24 to 144 residues) assessed as inhibition constant by fluorescence polarization binding assay. Background: Polarisation of emitted light reports the rotation of a fluorescent probe.
T3 sequence (Q15059 whole entry, the tested form may be a part): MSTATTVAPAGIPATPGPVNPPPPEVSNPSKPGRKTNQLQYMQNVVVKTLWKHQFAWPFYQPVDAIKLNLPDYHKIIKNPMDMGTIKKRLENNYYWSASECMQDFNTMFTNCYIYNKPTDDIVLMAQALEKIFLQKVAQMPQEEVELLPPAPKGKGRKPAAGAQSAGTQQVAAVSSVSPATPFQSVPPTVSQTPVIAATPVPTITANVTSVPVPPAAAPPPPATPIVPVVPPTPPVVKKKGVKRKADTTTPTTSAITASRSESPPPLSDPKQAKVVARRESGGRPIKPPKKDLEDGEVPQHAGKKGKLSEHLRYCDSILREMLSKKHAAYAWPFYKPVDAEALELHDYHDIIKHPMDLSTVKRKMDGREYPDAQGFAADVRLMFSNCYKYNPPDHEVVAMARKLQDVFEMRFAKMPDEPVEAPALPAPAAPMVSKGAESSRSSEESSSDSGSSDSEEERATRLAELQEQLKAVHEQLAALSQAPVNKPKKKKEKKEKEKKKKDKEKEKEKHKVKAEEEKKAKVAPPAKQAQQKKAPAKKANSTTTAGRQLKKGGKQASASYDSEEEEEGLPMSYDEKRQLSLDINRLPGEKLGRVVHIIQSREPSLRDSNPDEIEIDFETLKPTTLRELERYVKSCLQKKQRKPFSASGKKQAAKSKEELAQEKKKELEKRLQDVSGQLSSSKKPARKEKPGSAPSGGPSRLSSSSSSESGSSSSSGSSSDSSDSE
Assay [5] relates to MCF7. Briefly: Antiproliferative activity against human MCF7 cells assessed as cell growth inhibition measured after 4 days by CCK-8 assay. The class given is functional, cell-based. As to conditions: MCF7, 96 h. For orientation: Tetrazolium dyes change colour on reduction, which living cells bring about.
Assay [6] has as its target T1, Protein cereblon/Bromodomain-containing protein 3 (Homo sapiens). Briefly: PROTAC activity at CRBN/BRD3 in human MM1.S cells assessed as induction of protein degradation measured after 24 hrs by Western blot analysis. The class given is cell-based.
In assay [7] the target is T2, Protein cereblon/Bromodomain-containing protein 4 (Homo sapiens). Briefly: PROTAC activity at CRBN/BRD4-L in human MCF7 cells assessed as induction of protein degradation at 1 to 50 uM measured after 24 hrs by Western blot analysis. Type of assay: cell-based. As to conditions: dose 1-50 µM.
For assay [8] the target is unchanged. Briefly: PROTAC activity at CRBN/BRD4-L in human MV4-11 cells assessed as induction of protein degradation at 0.5 to 10 uM measured after 24 hrs by Western blot analysis. Type of assay: cell-based. As to conditions: dose 0.5-10 µM.
The target is the same in assay [9]. The assay is described as follows: PROTAC activity at CRBN/BRD4-L in human MM1.S cells assessed as induction of protein degradation at 1 uM measured after 1 to 24 hrs by Western blot analysis. The class given is cell-based. As to conditions: time 1-24 hrs.
In assay [10] the target is T4, Protein cereblon/Bromodomain-containing protein 2 (Homo sapiens) (UniProt P25440+Q96SW2). Briefly: PROTAC activity at CRBN/BRD2 in human MCF7 cells assessed as induction of protein degradation at 1 uM measured around 1 to 3 hrs by Western blot analysis. The class given is cell-based. As to conditions: time 1-3 hrs.
T4 sequence (P25440 whole entry, looked up): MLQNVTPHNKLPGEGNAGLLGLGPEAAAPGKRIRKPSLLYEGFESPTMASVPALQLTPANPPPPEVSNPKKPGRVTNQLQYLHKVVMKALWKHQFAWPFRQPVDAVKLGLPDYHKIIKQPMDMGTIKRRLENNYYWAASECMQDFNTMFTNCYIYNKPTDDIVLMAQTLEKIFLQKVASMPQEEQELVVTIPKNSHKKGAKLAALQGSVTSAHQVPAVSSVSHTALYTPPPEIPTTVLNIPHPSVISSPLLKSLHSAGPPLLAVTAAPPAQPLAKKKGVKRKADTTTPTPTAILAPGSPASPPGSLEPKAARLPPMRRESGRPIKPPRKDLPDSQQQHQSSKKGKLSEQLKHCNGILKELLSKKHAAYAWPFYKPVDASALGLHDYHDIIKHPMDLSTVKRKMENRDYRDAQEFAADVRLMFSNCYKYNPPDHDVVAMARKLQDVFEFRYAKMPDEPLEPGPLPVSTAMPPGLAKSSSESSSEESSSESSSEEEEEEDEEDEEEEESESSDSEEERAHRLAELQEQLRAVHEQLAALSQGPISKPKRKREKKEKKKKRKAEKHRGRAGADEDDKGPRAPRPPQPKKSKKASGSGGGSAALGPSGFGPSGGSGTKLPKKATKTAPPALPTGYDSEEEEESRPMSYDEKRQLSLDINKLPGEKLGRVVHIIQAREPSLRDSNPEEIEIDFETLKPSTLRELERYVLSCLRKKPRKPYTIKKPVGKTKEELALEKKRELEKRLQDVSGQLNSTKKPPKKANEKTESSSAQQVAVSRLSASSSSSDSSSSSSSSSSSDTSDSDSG
T4 sequence (Q96SW2 whole entry, looked up): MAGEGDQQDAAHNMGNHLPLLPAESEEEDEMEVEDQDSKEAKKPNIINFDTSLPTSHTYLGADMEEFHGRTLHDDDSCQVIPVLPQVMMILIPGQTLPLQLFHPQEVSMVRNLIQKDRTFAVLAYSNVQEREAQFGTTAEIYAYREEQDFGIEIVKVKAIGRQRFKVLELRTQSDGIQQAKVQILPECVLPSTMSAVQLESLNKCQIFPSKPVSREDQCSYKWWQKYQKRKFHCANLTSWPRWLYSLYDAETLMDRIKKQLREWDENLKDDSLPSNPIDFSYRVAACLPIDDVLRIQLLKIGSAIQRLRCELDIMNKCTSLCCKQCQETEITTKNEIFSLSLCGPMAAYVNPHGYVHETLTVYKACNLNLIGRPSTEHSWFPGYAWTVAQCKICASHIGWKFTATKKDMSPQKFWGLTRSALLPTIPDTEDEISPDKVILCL
Assay [11] deals with MM1.S. Briefly: Antiproliferative activity against human MM1.S cells assessed as cell growth inhibition measured after 4 days by CellTitre-Glo assay. Type of assay: functional, cell-based. As to conditions: 96 h.
The target of assay [12] is T2, Protein cereblon/Bromodomain-containing protein 4 (Homo sapiens). The assay is described as follows: PROTAC activity at CRBN/BRD4-L in human HGC-27 cells assessed as induction of protein degradation at 1 uM measured around 1 to 3 hrs by Western blot analysis. The class given is cell-based. As to conditions: time 1-3 hrs.
For assay [13], the target named is T1, Protein cereblon/Bromodomain-containing protein 3 (Homo sapiens). Briefly: PROTAC activity at CRBN/BRD3 in human MM1.S cells assessed as induction of protein degradation at 1 uM measured around 1 to 3 hrs by Western blot analysis. Type of assay: cell-based. As to conditions: time 1-3 hrs.
For assay [14] the target is unchanged. The assay is described as follows: PROTAC activity at CRBN/BRD3 in human MV4-11 cells assessed as induction of protein degradation at 0.5 to 10 uM measured after 24 hrs by Western blot analysis. The class given is cell-based. As to conditions: dose 0.5-10 µM.
Assay [15] deals with HeLa. The assay is described as follows: Antiproliferative activity against human HeLa cells assessed as cell growth inhibition measured after 4 days by CCK-8 assay. Type of assay: functional, cell-based. As to conditions: 96 h.
Assay [16] addresses T2, Protein cereblon/Bromodomain-containing protein 4 (Homo sapiens). The assay is described as follows: PROTAC activity at CRBN/BRD4-L in human MCF7 cells assessed as induction of protein degradation at 1 uM measured around 1 to 3 hrs by Western blot analysis. Type of assay: cell-based. As to conditions: time 1-3 hrs.
For assay [17] the target is unchanged. Briefly: PROTAC activity at CRBN/BRD4-L in human MM1.S cells assessed as induction of protein degradation at 1 uM measured around 1 to 3 hrs by Western blot analysis. As to conditions: time 1-3 hrs. The class given is cell-based.
The subject of assay [18] is HGC-27. The assay is described as follows: Antiproliferative activity against human HGC-27 cells assessed as cell growth inhibition measured after 4 days by CCK-8 assay. The class given is functional, cell-based. As to conditions: HGC-27, 96 h.
The target in assay [19] is T1, Protein cereblon/Bromodomain-containing protein 3 (Homo sapiens). The assay is described as follows: PROTAC activity at CRBN/BRD3 in human MM1.S cells assessed as induction of protein degradation at 1 uM measured after 1 to 24 hrs by Western blot analysis. The class given is cell-based. As to conditions: time 1-24 hrs.
For assay [20], the target named is T2, Protein cereblon/Bromodomain-containing protein 4 (Homo sapiens). Briefly: PROTAC activity at CRBN/BRD4-L in human HeLa cells assessed as induction of protein degradation at 1 to 50 uM measured after 24 hrs by Western blot analysis. The class given is cell-based. As to conditions: dose 1-50 µM.
Assay [21] has as its target T1, Protein cereblon/Bromodomain-containing protein 3 (Homo sapiens). Briefly: PROTAC activity at CRBN/BRD3 in human MCF7 cells assessed as induction of protein degradation at 1 uM measured around 1 to 3 hrs by Western blot analysis. Type of assay: cell-based. As to conditions: time 1-3 hrs.
Assay [22] has as its target T3, Bromodomain-containing protein 3. The assay is described as follows: Binding affinity to recombinant human BRD3 BD2 (306 to 417 residues) assessed as inhibition constant by fluorescence polarization binding assay.
In assay [23] the test system is HepG2. The assay is described as follows: Antiproliferative activity against human HepG2 cells assessed as cell growth inhibition measured after 4 days by CCK-8 assay. Type of assay: functional, cell-based. As to conditions: HepG2, 96 h.
Assay [24] has as its target T2, Protein cereblon/Bromodomain-containing protein 4 (Homo sapiens). Briefly: PROTAC activity at CRBN/BRD4-S in human MM1.S cells assessed as induction of protein degradation at 1 uM measured after 1 to 24 hrs by Western blot analysis. Type of assay: cell-based. As to conditions: time 1-24 hrs.
Assay [25] addresses T4, Protein cereblon/Bromodomain-containing protein 2 (Homo sapiens). The assay is described as follows: PROTAC activity at CRBN/BRD2 in human MV4-11 cells assessed as induction of protein degradation at 0.5 to 10 uM measured after 24 hrs by Western blot analysis. As to conditions: dose 0.5-10 µM. Type of assay: cell-based.
For assay [26], the target named is T1, Protein cereblon/Bromodomain-containing protein 3 (Homo sapiens). Briefly: PROTAC activity at CRBN/BRD3 in human MCF7 cells assessed as induction of protein degradation at 1 to 50 uM measured after 24 hrs by Western blot analysis. Type of assay: cell-based. As to conditions: dose 1-50 µM.
The target of assay [27] is T4, Protein cereblon/Bromodomain-containing protein 2 (Homo sapiens). The assay is described as follows: PROTAC activity at CRBN/BRD2 in human MM1.S cells assessed as induction of protein degradation at 1 uM measured around 1 to 3 hrs by Western blot analysis. Type of assay: cell-based. As to conditions: time 1-3 hrs.
For assay [28] the target is unchanged. The assay is described as follows: PROTAC activity at CRBN/BRD2 in human HGC-27 cells assessed as induction of protein degradation at 1 uM measured around 1 to 3 hrs by Western blot analysis. Type of assay: cell-based. As to conditions: time 1-3 hrs.
Assay [29] deals with T2, Protein cereblon/Bromodomain-containing protein 4 (Homo sapiens). The assay is described as follows: PROTAC activity at CRBN/BRD4-L in human MM1.S cells assessed as induction of protein degradation measured after 24 hrs by Western blot analysis. Type of assay: cell-based.
Assay [30] concerns the target T4, Protein cereblon/Bromodomain-containing protein 2 (Homo sapiens). Briefly: PROTAC activity at CRBN/BRD2 in human MM1.S cells assessed as induction of protein degradation at 1 uM measured after 1 to 24 hrs by Western blot analysis. The class given is cell-based. As to conditions: time 1-24 hrs.
Assay [31] relates to A549. Briefly: Antiproliferative activity against human A549 cells assessed as cell growth inhibition measured after 4 days by CCK-8 assay. The class given is functional, cell-based. As to conditions: A549, 96 h.
Assay [32] concerns MM1.S. Briefly: Downregulation of c-Myc expression in human MM1.S cells at 1 uM measured after 1 to 24 hrs by Western blot analysis. The class given is functional, cell-based. As to conditions: time 1-24 hrs.
The target of assay [33] is T1, Protein cereblon/Bromodomain-containing protein 3 (Homo sapiens). Briefly: PROTAC activity at CRBN/BRD3 in human HeLa cells assessed as induction of protein degradation at […] measured after 24 hrs by Western blot analysis. The class given is cell-based. As to conditions: dose lower 1.0 µM.
Assay [34] has as its system Mus musculus. Briefly: In vivo PROTAC activity at CRBN/BRD4-L in SCID mouse xenografted with human MM1.S cells assessed as reduction in BRD4-L protein level in tumor at 100 mg/kg, po measured after 6 hrs by Western blot analysis. The class given is functional, organism-based.

T2 sequence (Q96SW2 whole entry, looked up, other chains not shown, the tested form may be a part): as the sequence (Q96SW2 whole entry, looked up) above
T1 sequence (Q15059 2-726 limits assumed): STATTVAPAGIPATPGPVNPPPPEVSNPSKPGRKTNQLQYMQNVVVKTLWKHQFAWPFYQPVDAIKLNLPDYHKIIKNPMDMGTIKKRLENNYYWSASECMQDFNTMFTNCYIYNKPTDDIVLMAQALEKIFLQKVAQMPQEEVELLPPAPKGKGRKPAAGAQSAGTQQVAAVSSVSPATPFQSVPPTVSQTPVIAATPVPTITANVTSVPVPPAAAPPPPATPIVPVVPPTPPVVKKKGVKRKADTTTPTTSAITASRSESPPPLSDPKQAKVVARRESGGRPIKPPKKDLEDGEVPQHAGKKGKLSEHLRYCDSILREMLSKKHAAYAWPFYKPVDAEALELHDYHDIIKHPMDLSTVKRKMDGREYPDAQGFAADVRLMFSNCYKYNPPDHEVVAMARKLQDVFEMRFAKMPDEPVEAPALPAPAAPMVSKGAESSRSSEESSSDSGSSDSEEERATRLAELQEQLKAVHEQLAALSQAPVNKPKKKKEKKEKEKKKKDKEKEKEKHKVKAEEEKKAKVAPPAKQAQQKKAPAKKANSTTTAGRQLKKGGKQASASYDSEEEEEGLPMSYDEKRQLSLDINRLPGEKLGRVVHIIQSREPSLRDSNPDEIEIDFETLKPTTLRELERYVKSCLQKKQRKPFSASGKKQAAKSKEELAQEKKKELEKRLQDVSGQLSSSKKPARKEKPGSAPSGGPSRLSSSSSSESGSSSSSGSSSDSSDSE
T1 sequence (Q96SW2 whole entry partner): as the sequence (Q96SW2 whole entry, looked up) above

With `Cc1sc2c(c1C)C(c1ccc(Cl)cc1)=N[C@@H](CC(=O)NCCCCNC(=O)COc1cccc3c1C(=O)N(C1CCC(=O)NC1=O)C3=O)c1nnc(C)n1-2` (stereo partly specified), the IC50 was determined as 11.8 nM in assay [1]; 5300 nM in assay [5]; 2470 nM in [11]; 16100 nM in assay [15]; 880 nM in [18]; 19800 nM in [23]. Besides, in assay [31], the IC50 came to 12300 nM. In addition, the outcome in [2], in assay [3], in assay [7], in assay [8], in assay [9] and in assay [10] was Active. In addition, the outcome in assay [12], in assay [13], in assay [14], in assay [16], in assay [17] and in assay [19] was Active. Also, the result in assay [20], in assay [21], in assay [25], in assay [26], in [27] and in assay [28] was Active. In addition, the outcome in assay [30], in assay [32] and in assay [33] was Active. Also, the Ki in [4] amounted to 7.28 nM; in assay [22], 5.26 nM. The Activity entry in assay [6] and in [29] was “Dose-Dependent Effect” each time. The outcome in assay [24] was inactive.
For the compound `Cc1nnc2n1-c1ccc(-c3cnn(C)c3)cc1[C@H](Nc1ccc(Cl)cc1)CC2`, the results for the IC50 in assay [1] and in assay [11] were 270 nM and 2320 nM, respectively. In assay [34], the result was Active.
